Experimental data from article PMC6723352, “Exploring Structure-Activity Relationship in Tacrine-Squaramide Derivatives as Potent Cholinesterase Inhibitors” (Biomolecules, 2019).
Read-outs that look alike come from different tables or passages of the source.

What was measured:
[1] = for Pe: PAMPA, PBS pH 7.4; for BBB permeation prediction in words: PAMPA-BBB; for CNS (+/−) predicted BBB permeation: class from Pe
From the text: An important feature for drugs targeting the brain is their ability to cross the BBB. The parallel artificial membrane permeability assay (PAMPA) is a high-throughput screening tool applicable for prediction of passive transport across BBB [57]. […] These include mainly (i) the different composition of the human phospholipid bilayer may cause deviation in predicted permeability, (ii) omitting the absorption of compounds that are actively transported by influx transporters and pumped-out by various efflux mechanisms with the glycoprotein P at the forefront or (iii) transport through the paracellular route which is mostly exploited by small […] molecules. Even considering these drawbacks, PAMPA-BBB is conceived as very simple but powerful tool for BBB prediction.
PAMPA (the parallel artificial membrane permeability assay) is a high-throughput screening tool applicable for prediction of the passive transport of potential drugs across the blood-brain barrier (BBB). In this study, it has been used as a non-cell-based in vitro assay carried out in a coated 96-well membrane filter. The filter membrane of the donor plate was coated with PBL (Polar Brain Lipid, Avanti, USA) in dodecane (4 µl of 20 mg/mL PBL in dodecane) and the acceptor well was filled with 300 µl of phosphate buffer saline, (PBS pH 7.4; VA). The tested compounds were dissolved first in DMSO and then diluted with PBS pH 7.4 to reach the final concentrations 50–500 µM in the donor well. […] In principle, test compound diffuse from the donor well through the polar brain lipid membrane (area = 0.28 cm^2) to the acceptor well. The concentration of the tested compound in both donor and the acceptor wells were assessed after 3, 4, 5 and 6 h of incubation in quadruplicate using the UV plate reader Synergy HT (Biotek, USA) at the maximum absorption wavelength of each compound (n = 3). Besides that, the solution of theoretical compound concentration, simulating the equilibrium state, established if the membrane was ideally permeable was prepared and assessed as well.

[2] = in vitro; settings: human
Protocol: The human origin cell line HepG2 (ATCC, Mannassas, VA, USA) isolated from liver hepatocellular carcinoma was used to evaluate cytotoxicity of tested compounds. The cells were cultivated in Dublecco’s modified Eagle’s medium (DMEM; Biosera, Nuaille, France) supplemented with 10% fetal bovine serum (Biosera) and 1% penicillin-streptomycin antibiotic solution (Sigma-Aldrich, St. Louis, MO, USA), incubated at 37 °C in a CO2 incubator (Binder CO2 incubator BC 160, Tuttlingen, Germany) and routinely passaged by trypsinization at 75–85% confluence.
The final concentration of DMSO was less than 0.25% per well.
After 24-h incubation, the medium containing serially diluted substances was aspirated from each well and replaced by 100 µL of fresh medium containing MTT (0.5 mg/mL). Plates were subsequently incubated at 37 °C in CO2 incubator for 45 min. The medium containing MTT was then aspirated and formazan dissolved in 100 μL of DMSO. The optical density of each well was measured using Synergy 2 Multi-Mode Microplate Reader (BioTek Instruments, Inc., Winooski, VT, USA) at 570 nm. The cell viability was expressed as the percentage of untreated control. Each experiment was performed in triplicate and repeated three independent times.
The IC50 values were expressed as a mean ± standard error of the mean (SEM).

[3] = target: T1, human AChE (hAChE), recombinant acetylcholinesterase (Homo sapiens, UniProt P22303); test: hAChE inhibition, modified Ellman's method; format: biochemical; settings: for times more potent than reference (hAChE): 3a vs THA, 5d vs 7-MEOTA; for SI (selectivity index for hAChE): ratio IC50(hBChE)/IC50(hAChE)
T1 construct: made in house
Protocol: Three series of tacrine-squaramide homodimers were tested for their inhibitory potential against human AChE (hAChE) and human BChE (hBChE) enzymes using modified spectrophotometric method of Ellman et al.. THA, 6-Cl-THA and 7-MEOTA were used as reference compounds. […].
(§1) Human plasmatic butyrylcholinesterase (BChE; EC 3.1.1.8) and recombinant acetylcholinesterase (AChE; 3.1.1.7) were prepared at the Department of Toxicology and Military Pharmacy. 5,5′-dithiobis(2-nitrobenzoic acid) (Ellman’s reagent, DTNB), phosphate buffer (PB, pH 7.4), acetylthiocholine (ATC) and butyrylthiocholine (BTC), were purchased from Sigma-Aldrich, Prague, Czech Republic. For measuring purposes – polystyrene Nunc 96-well microplates with flat bottom shape (ThermoFisher Scientific, USA) were utilized.
(§2) All the assays were carried out in 0.1 M KH2PO4/K2HPO4 buffer, pH 7.4. Enzyme solutions were prepared at 2.0 units/mL in 2 mL aliquots. The assay medium (100 µL) consisted of 40 µL of 0.1 M phosphate buffer (pH 7.4), 20 µL of 0.01 M DTNB, 10 µL of the enzyme, and 20 µL of 0.01 M substrate (ATC/BTC iodide solution).
(§3) Tested compounds were preincubated for 5 min. The reaction was started by immediate addition of 20 µL of the substrate. The activity was determined by measuring the increase in absorbance at 412 for AChE/BChE at 37 °C at 2 min intervals - using a Multi-mode microplate reader Synergy 2 (Winooski, VT, USA). Each concentration was assayed in triplicate. Software GraphPad Prizm 5 (San Diego, CA, USA) was used for the statistical data evaluation.

[4] = target: human BChE (hBChE), human plasmatic butyrylcholinesterase (Homo sapiens, UniProt P06276); test: hBChE inhibition, modified Ellman's method; format: biochemical
Protocol: Three series of tacrine-squaramide homodimers were tested for their inhibitory potential against human AChE (hAChE) and human BChE (hBChE) enzymes using modified spectrophotometric method of Ellman et al.. THA, 6-Cl-THA and 7-MEOTA were used as reference compounds.
as §1, §2, §3

[5] = mean of at least three experiments, read-out: IC50 hBChE

T1 sequence (P22303 32-614): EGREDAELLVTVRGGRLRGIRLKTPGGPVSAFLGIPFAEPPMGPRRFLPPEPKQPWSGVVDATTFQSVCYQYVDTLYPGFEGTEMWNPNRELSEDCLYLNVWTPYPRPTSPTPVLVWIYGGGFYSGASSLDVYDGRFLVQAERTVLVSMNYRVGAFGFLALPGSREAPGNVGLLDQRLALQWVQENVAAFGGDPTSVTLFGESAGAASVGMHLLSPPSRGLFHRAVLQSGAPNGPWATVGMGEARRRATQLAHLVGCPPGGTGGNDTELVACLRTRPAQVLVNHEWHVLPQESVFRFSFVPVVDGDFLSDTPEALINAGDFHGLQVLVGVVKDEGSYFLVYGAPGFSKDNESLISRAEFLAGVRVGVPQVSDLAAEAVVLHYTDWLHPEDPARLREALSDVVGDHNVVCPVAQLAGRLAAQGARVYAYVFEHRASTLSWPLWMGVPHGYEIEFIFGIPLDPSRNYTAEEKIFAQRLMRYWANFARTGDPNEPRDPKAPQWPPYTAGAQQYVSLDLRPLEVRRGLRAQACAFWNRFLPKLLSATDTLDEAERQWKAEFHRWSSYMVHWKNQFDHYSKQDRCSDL
Sequence of human BChE (hBChE), human plasmatic butyrylcholinesterase (P06276 29-602): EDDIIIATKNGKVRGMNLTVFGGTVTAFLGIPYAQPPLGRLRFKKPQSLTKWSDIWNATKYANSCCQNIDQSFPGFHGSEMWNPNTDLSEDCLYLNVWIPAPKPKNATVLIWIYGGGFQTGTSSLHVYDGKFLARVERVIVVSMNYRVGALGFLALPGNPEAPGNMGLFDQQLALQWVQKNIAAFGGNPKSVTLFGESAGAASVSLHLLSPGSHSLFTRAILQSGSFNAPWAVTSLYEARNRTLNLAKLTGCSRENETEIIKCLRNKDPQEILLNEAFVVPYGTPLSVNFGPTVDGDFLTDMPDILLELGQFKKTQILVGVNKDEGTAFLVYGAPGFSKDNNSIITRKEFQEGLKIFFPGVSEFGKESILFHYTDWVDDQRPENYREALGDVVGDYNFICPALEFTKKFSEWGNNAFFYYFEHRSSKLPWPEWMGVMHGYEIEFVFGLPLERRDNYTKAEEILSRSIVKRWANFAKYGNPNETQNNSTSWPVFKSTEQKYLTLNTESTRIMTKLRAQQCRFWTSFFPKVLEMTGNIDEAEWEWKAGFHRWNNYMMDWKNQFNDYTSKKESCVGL

SMILES	Pe [1] [×10⁻⁶ cm/s]	BBB permeation prediction in words [1]	CNS (+/−) predicted BBB permeation [1]	IC50 at 24 h [2] [nM]	IC50 [3] [nM]	times more potent than reference (hAChE) [3] [times]	SI (selectivity index for hAChE) [3]	IC50 [4] [nM]	IC50 [4, 5] [nM]
O=c1c(NCCNc2c3c(nc4ccccc24)CCCC3)c(NCCNc2c3c(nc4ccccc24)CCCC3)c1=O [Compound 3a, Bis({2-[(1,2,3,4-tetrahydroacridin-9-yl)amino]ethyl}amino)cyclobut-3-ene-1,2-dione]	1.1	cannot presumably cross the BBB	CNS − (CNS −: low BBB permeation predicted with Pe (10^−6 cm·s^−1) < 2.0)	> 256000	3.8	84	16	62	
O=c1c(NCCCCCCNc2c3c(nc4cc(Cl)ccc24)CCCC3)c(NCCCCCCNc2c3c(nc4cc(Cl)ccc24)CCCC3)c1=O [Compound 4e, Bis({6-[(6-chloro-1,2,3,4-tetrahydroacridin-9-yl)amino]hexyl}amino)cyclobut-3-ene-1,2-dione]	17	high probability to cross the BBB	CNS + (CNS +: high BBB permeation predicted with Pe (10^−6 cm·s^−1) > 4.0)	> 64000	3.2		170		540
COc1ccc2nc3c(c(NCCNc4c(NCCNc5c6c(nc7ccc(OC)cc57)CCCC6)c(=O)c4=O)c2c1)CCCC3 [Compound 5a, Bis({2-[(7-methoxy-1,2,3,4-tetrahydroacridin-9-yl)amino]ethyl}amino)cyclobut-3-ene-1,2-dione]	2.3	uncertain BBB permeation	CNS +/− (CNS +/−: BBB permeation uncertain with Pe (10^−6 cm·s^−1) from 4.0 to 2.0)	> 256000	170		0.7		130
COc1ccc2nc3c(c(NCCCCCNc4c(NCCCCCNc5c6c(nc7ccc(OC)cc57)CCCC6)c(=O)c4=O)c2c1)CCCC3 [Compound 5d, Bis({5-[(7-methoxy-1,2,3,4-tetrahydroacridin-9-yl)amino]pentyl}amino)cyclobut-3-ene-1,2-dione]	1.3	cannot presumably cross the BBB	CNS − (CNS −: low BBB permeation predicted with Pe (10^−6 cm·s^−1) < 2.0)	98000	120	83	5.7	680	
COc1ccc2nc3c(c(NCCCCCCCNc4c(NCCCCCCCNc5c6c(nc7ccc(OC)cc57)CCCC6)c(=O)c4=O)c2c1)CCCC3 [Compound 5f, Bis({7-[(7-methoxy-1,2,3,4-tetrahydroacridin-9-yl)amino]heptyl}amino)cyclobut-3-ene-1,2-dione]				9000	170		7.6		1300
COc1ccc2nc3c(c(NCCCCCCCCNc4c(NCCCCCCCCNc5c6c(nc7ccc(OC)cc57)CCCC6)c(=O)c4=O)c2c1)CCCC3 [Compound 5g, Bis({8-[(7-methoxy-1,2,3,4-tetrahydroacridin-9-yl)amino]octyl}amino)cyclobut-3-ene-1,2-dione]				3500	490		5.9		2900
